The source of these data is US9233961B2, “Compounds and compositions for the treatment of parasitic diseases” (Novartis AG, priority 2013, dated 2016).

Like-named read-outs stand apart in the source and are kept apart here.

The test system of assay [1] is Leishmania donovani axenic amastigote parasites. The assay can be described thus: Leishmania donovani axenic amastigote proliferation assay. The assay is classed as cell-based. As to the method: Leishmania Donovani Axenic Amastigote Proliferation Assay
Leishmania donovani axenic amastigote parasites are grown at 37° C., 5% CO2 in media made of RPMI 1640, 4 mM L-glutamine, 20% heat inactivated FBS, 100 units/ml of penicillin and 100 μg/ml of streptomycin, 23 μM Folic Acid, 100 μM Adenosine, 22 mM D-glucose, 25 mM MES. The pH of media is adjusted to 5.5 at 37° C. using HCl. 20 μL of media is first dispensed into 384 well plates and 100 nL of the compounds of invention in DMSO are added to the plate wells. At the same time control compounds and DMSO are added to plates to serve as the positive and negative controls, respectively. 40 μL of parasite culture (9600 parasites) are then added to the plate wells. The plates are then placed into incubators. After 2 day incubation, 20 μL of Cell TiterGlo (Promega) is added to the plate wells. The luminescence signal of each well is measured using the Envision reader (Perkin Elmer). The percentage inhibition of 50%, EC50, is calculated for each of the compounds.

In assay [2] the test system is L. donovani HU3 strain in mouse peritoneal macrophages. The assay can be described thus: Assay for proliferation of Leishmania parasites in mouse peritoneal macrophages. The assay is classed as cell-based, Leishmania donovani. Conditions: Leishmania donovani, Peritoneal macrophage. An excerpt: Assay for Proliferation of Leishmania Parasites
The activity of a compound according to the present invention for inhibition of parasitemai can be assessed by the parasite proliferation assay. The assay measures the increase in the parasite number in the assayed plate well using a DNA intercalating dye, SYBR Green I® dye (INVITROGEN) to stain Leishmania cell nuclei. It is understood that the assays illustrate the invention without in any way limiting the scope of the invention.
L. donovani HU3 strain is propagated by infecting BALB/c mice through tail vein injection with 10^7 Leishmania parasites. Infected mice are allowed to develop infection during 9-11 weeks post-infection. During this time, the parasites accumulate in the infected mouse spleens to large numbers, and the infected mice serve as the source of parasites for the in vitro measurement of compound efficacies. To assay a compound for anti-leishmanial activity, peritoneal macrophages isolated from non-infected BALB/c mice are seeded into 384-well plates at density 2×10^4 macrophages per well in […] of medium (RPMI 1640, 10% […], 10 mM HEPES, 1 mM sodium pyruvate, 1% Pen/Strep). Subsequently, the seeded plates are placed into an incubator set to maintain 37° C. temperature and atmosphere with 5% CO2. The next day, Leishmania parasites are isolated from the spleens of mice infected for 9-11 weeks and 4×10^5 isolated parasites in […] of the above media are added to each plate well. Plates are then returned into incubators and infection is allowed to proceed for 24 hours. After the infection of macrophages is completed, […] of compounds of the invention in the above medium, which also contains 5% DMSO, are added to plate wells containing infected macrophages. At the same time control compounds (miltefosine and amphotericin B) and DMSO are added to plates to serve as the positive and negative controls, respectively. After the compound addition, the plates are returned into incubator and cells infected with parasites are cultured for 5 days. At the end of cultivation, […] of 8% paraformaldehyde is added to plate wells and incubated for 15 min at room temperature. Following the incubation, the paraformaldehyde from plate wells is aspirated, and […] of PBS containing 0.2% Triton X-100 is added to wells. After 15 min incubation, the solution is aspirated from wells again, and replaced with SybrGreen Dye solution in PBS (1:125,000 dilution). Infected cells are imaged with Evotec Opera high-content microscope, and the number of parasites in well is determined by counting parasite nuclei visualized by staining with SybrGreen dye. The percentage inhibition of 50%, EC50, is calculated for each compound.
The inhibitory efficacy of the compounds of the invention in delaying the proliferation of L. donovani in mouse peritoneal macrophages is provided in Table I, infra.

Setting [3] is: axenic amastigotes in vitro, read-out: L. donovani amastigotes EC50.
[4] abbreviates: read-out: L. donavani Macrophage EC50.
Setting [5] is: read-out: L. donavani Macrophage EC50 (μM).

One may read the EC50 as the midpoint of the concentration-response curve. On to `Cc1cnc2nc(-c3cc(NC(=O)C4CCO4)ccc3Cl)[nH]c2c1` (stereo not shown) [Compound 103], for which the EC50 in assay [1] (setting [3]) was > 25 µM; in assay [2] (setting [4]), > 50 µM.
The matching figures for `O=C(Nc1ccc(Cl)c(-c2nc3ncc(-c4ccc(-n5cccn5)cc4)cc3[nH]2)c1)c1ccco1` [Compound 56]: 3.2 µM and 16 µM.
Take `Cc1cnc2nc(-c3cc(NC(=O)c4ccc(OCCN(C)C)cc4)ccc3F)[nH]c2c1` [Compound 269]: the EC50 was > 25 µM in assay [1] (setting [3]) and > 50 µM in assay [2] (setting [4]).
The matching figures for `COC(=O)Nc1ccc(-c2cnc3nc(-c4cc(NC(=O)N5CCC5)ccc4Cl)[nH]c3c2)cc1` [Compound 344]: 7.6 µM and 17 µM.
The matching figures for `O=C(Nc1ccc(F)c(-c2nc3ncc(Cl)cc3[nH]2)c1)c1ccco1` [Example 357, N-(3-{6-chloro-1H-imidazo[4,5-b]pyridin-2-yl}-4-fluorophenyl)furan-2-carboxamide]: 0.6 µM and 2.51 µM.
For `O=C(Nc1ccc(Cl)c(-c2nc3ncc(C(F)(F)F)cc3[nH]2)c1)c1ccc(F)o1` [Compound 284], in that order: 0.7 µM and 4.1 µM.
As to `Cc1c[nH]nc1-c1cnc2nc(-c3cc(NC(=O)c4ccco4)ccc3Cl)[nH]c2c1` [Compound 73], the EC50 stood at 0.82 µM in assay [1] (setting [3]) and 8.2 µM in assay [2] (setting [4]).
As to `O=C1NC(=O)C(c2ccc(-c3cnc4nc(-c5cc(NC(=O)c6ccco6)ccc5Cl)[nH]c4c3)cc2)N1` (stereo not shown) [Compound 42], the EC50 turned out to be 1.39 µM in assay [1] (setting [3]) and 4 µM in assay [2] (setting [4]).
The matching figures for `CSc1nccc(C(=O)Nc2ccc(Cl)c(-c3nc4ncc(C)cc4[nH]3)c2)n1` [Compound 137]: > 25 µM and 15.9 µM.
The matching figures for `O=C(Nc1ccc(F)c(-c2nc3ncc(-c4cnn(C5CCNCC5)c4)cc3[nH]2)c1)N1CCCC1` [Compound 298]: > 25 µM and > 50 µM.
The matching figures for `O=C(Nc1ccc(Cl)c(-c2nc3ncc(-c4ccc(OCCCN5CCOCC5)cc4)cc3[nH]2)c1)N1CCCC1` [Compound 302]: 5.9 µM and 9.9 µM.
For `O=C(Nc1ccc(F)c(-c2nc3ncc(-c4ccc(OCC5CO5)cc4)cc3[nH]2)c1)N1CCCC1` (stereo not shown) [Compound 310], the EC50 is 1.95 µM in assay [1] (setting [3]) and 4.6 µM in assay [2] (setting [4]).
For `CC(=O)Nc1ccc(-c2cnc3nc(-c4cc(NC(=O)c5ccco5)ccc4Cl)[nH]c3c2)cc1` [Compound 18], in that order: 0.3 µM and 1.48 µM.
Take `O=C(Nc1ccc(C(F)(F)F)cc1)Nc1ccc(F)c(-c2nc3ncc(N4CCCCC4)cc3o2)c1` [Compound 397]: the results for the EC50 in assay [1] (setting [3]) and in assay [2] (setting [4]) were > 25 µM and > 30 µM, respectively.
Turning to `CNc1ccc(-c2cnc3nc(-c4cc(NC(=O)c5ccc(CN(C)C)o5)ccc4Cl)[nH]c3c2)cc1` [Compound 347], the EC50 in assay [1] (setting [3]) was > 25 µM; in assay [2] (setting [4]) it was 7.2 µM.
For `O=C(Nc1ccc(F)c(-c2nc3ncc(-c4ccccc4)cc3[nH]2)c1)N1CCCC1` [Example 309, N-(4-fluoro-3-{6-phenyl-1H-imidazo[4,5-b]pyridin-2-yl}phenyl)pyrrolidine-1-carboxamide], in that order: 1.97 µM and 4.5 µM.
Regarding `O=C(Nc1ccc(F)c(-c2nc3ncc(Br)cc3[nH]2)c1)c1cc[nH]n1` [Compound 368], the EC50 in assay [1] (setting [3]) is 18.9 µM; in assay [2] (setting [4]), > 50 µM.
`CC(C)(CN)c1ccc(-c2cnc3nc(-c4cc(NC(=O)N5CCCC5)ccc4Cl)[nH]c3c2)cc1` [Compound 304]: the values for the concentration giving a half-maximal response (EC50) in assay [1] (setting [3]) and in assay [2] (setting [4]) were 9.6 µM and 4.7 µM, respectively.
In the case of `COC(=O)Nc1ccc(-c2cnc3nc(-c4cc(NC(=O)Nc5ccc(C(F)(F)F)cc5)ccc4F)oc3c2)cc1` [Compound 402], the EC50 in assay [1] (setting [3]) is > 24 µM; in assay [2] (setting [4]) it was 10 µM.
The matching figures for `O=C(Nc1ccc(C(F)(F)F)cc1)Nc1ccc(F)c(-c2nc3ncc(Cl)cc3[nH]2)c1` [Compound 356]: > 25 µM and 19.6 µM.
The matching figures for `O=C(Nc1ccc(Cl)c(-c2nc3ncc(-c4ccc(F)cc4)cc3[nH]2)c1)N1CCCC1` [Compound 293]: 0.38 µM and 2.47 µM.
The matching figures for `O=C(Nc1ccc(F)c(-c2nc3ncc(-c4ccc(OCCN5CCOCC5)cc4)cc3[nH]2)c1)N1CCCC1` [Compound 295]: 2.86 µM and 1.27 µM.
Take `Cc1cnc2nc(-c3cc(NC(=O)C(O)c4ccc(C(F)(F)F)cc4)ccc3Cl)[nH]c2c1` (stereo not shown) [Compound 182]: the concentration for a half-maximal effect (EC50) was > 25 µM in assay [1] (setting [3]) and > 50 µM in assay [2] (setting [4]).
For `CN1CCN(CCOc2ccc(-c3cnc4nc(-c5cc(NC(=O)N6CCCC6)ccc5F)[nH]c4c3)cc2)CC1` [Compound 311], in that order: > 25 µM and > 6.9 µM.
For `O=C(Nc1ccc(Cl)c(-c2nc3ncc(-c4ccc(OCCN5CCOCC5)cc4)cc3[nH]2)c1)N1CCCC1` [Compound 299], in that order: 0.73 µM and 0.208 µM.
For the compound `Cc1ccnc2nc(-c3cc(NC(=O)c4ccco4)ccc3Cl)[nH]c12` [Compound 3], the EC50 was > 25 µM in assay [1] (setting [3]) and > 50 µM in assay [2] (setting [4]).
Regarding `Cc1ccc(C(=O)Nc2ccc(F)c(-c3nc4ncc(-c5ccccc5)cc4[nH]3)c2)o1` [Example 380, N-(4-fluoro-3-{6-phenyl-1H-imidazo[4,5-b]pyridin-2-yl}phenyl)-5-methylfuran-2-carboxamide], the concentration for a half-maximal effect (EC50) amounted to 5.7 µM in assay [1] (setting [3]) and 3.3 µM in assay [2] (setting [4]).
For `CNc1ccc(-c2cnc3nc(-c4cc(NC(=O)Nc5ccc(C(F)(F)F)cc5)ccc4F)oc3c2)cc1` [Compound 393], in that order: > 12.5 µM and > 50 µM.
Regarding `Cc1cnc2nc(-c3cc(NC(=O)c4ccc(CN(C)C)o4)ccc3Cl)[nH]c2c1` [Compound 94], the concentration giving a half-maximal response (EC50) in assay [1] (setting [3]) was > 25 µM; in assay [2] (setting [4]) it was 4.9 µM.
As to `NC(=O)Nc1ccc(-c2cnc3nc(-c4cc(NC(=O)c5ccco5)ccc4Cl)[nH]c3c2)cc1` [Compound 32], the EC50 in assay [1] (setting [3]) is > 25 µM; in assay [2] (setting [4]) it was 15.3 µM.
With `CNc1ccc(F)c(-c2nc3ncc(-c4ccc(OCCN5CCOCC5)cc4)cc3o2)c1` [Example 421, 4-Fluoro-N-methyl-3-(6-{4-[2-(morpholin-4-yl)ethoxy]phenyl}-[1,3]oxazolo[4,5-b]pyridin-2-yl)aniline], the EC50 in assay [1] (setting [3]) is > 25 µM; in assay [2] (setting [5]) it was > 50 µM.
For the compound `CCN(CC)C(=O)Nc1ccc(F)c(-c2nc3ncc(Cl)cc3[nH]2)c1` [Compound 355], the results for the EC50 in assay [1] (setting [3]) and in assay [2] (setting [4]) were > 25 µM and > 50 µM, respectively.
Turning to `Cc1cnc2nc(-c3cc(NC(=O)c4ccnc(C)c4C)ccc3Cl)[nH]c2c1` [Compound 189], the EC50 in assay [1] (setting [3]) is > 25 µM; in assay [2] (setting [4]), > 28.9 µM.
Turning to `CNC(=O)Nc1ccc(-c2cnc3nc(-c4cc(NC(=O)c5ccco5)ccc4Cl)[nH]c3c2)cc1` [Compound 57], the EC50 is 1.83 µM in assay [1] (setting [3]) and > 50 µM in assay [2] (setting [4]).
On to `CC(C)CC(=O)Nc1ccc(-c2cnc3nc(-c4cc(NC(=O)c5ccco5)ccc4Cl)[nH]c3c2)cc1` [Compound 13, N-(4-chloro-3-{6-[4-(3-methylbutanamido)phenyl]-1H-imidazo[4,5-b]pyridin-2-yl}phenyl)furan-2-carboxamide], for which the EC50 was ~0.08 µM in assay [1] (48 h, L. donovani axenic amastigotes, 2 day incubation, Cell TiterGlo luminescence, read-out: EC50); 0.083 µM in assay [1] (setting [3]); 0.115 µM in assay [2] (setting [4]).
In the case of `COC(=O)Nc1ccc(-c2cnc3nc(-c4cc(NC(=O)c5ccco5)ccc4F)oc3c2)cc1` [Compound 414], the EC50 in assay [1] (setting [3]) was determined as 0.2 µM; in assay [2] (setting [5]) it was 1.17 µM.
